Like-named read-outs stand apart in the source and are kept apart here.
Columns and labels:
[1] = molecular target: T1, butyrylcholinesterase (BuChE, E.C. 3.1.1.8, from equine serum) (Equus caballus, UniProt P81908); assay: BuChE inhibition (Ellman method); type: biochemical
T1 construct: butyrylcholinesterase (BuChE, E.C. 3.1.1.8, from equine serum); purchased Sigma-Aldrich (Steinheim, Germany); host or cells: equine serum (natural source)
Protocol: (§1) The inhibitory activities against AChE and BuChE of the prepared compounds were performed by means of the method previously developed by Ellman et al. using neostigmine as the reference compound [68]. This is based on the reaction of released thiocholine to give a coloured product with a chromogenic reagent. Seven different concentrations of the compounds in the range 10^−9–10^−3 M were measured at 412 nm. All the assays were performed in the 0.1 M NaH2PO4/Na2HPO4 buffer (pH = 8) using the Varian Cary 50 spectrophotometer. 5,5′-Dithio-bis(2-nitrobenzoic acid) (DTNB) was used to measure the anti-AChE activity. […] Briefly, 140 µL of 0.1 mM sodium phosphate buffer (pH 8.0), 20 µL of DTNB, 20 µL of the assay solution and 20 µL of the AChE/BuChE solution were added and incubated for 15 min at 25 °C. The reaction was then initiated by adding 10 µL of acetylthiocholine iodide or butylthiocholine iodide. Yellow anion (2-nitro-5-thiobenzoic acid) formation was recorded at 412 nm for 10 min. It was determined by preparing an identical solution of the enzyme in the absence of tested compounds (as the control). Control and inhibitor readings were corrected with a blank read. All operations were repeated three times. The inhibition properties are reported as the IC50 values, which were determined graphically from the inhibition curves of log inhibitor concentration vs. the percentage of inhibition. The IC50 values represent the concentration of the inhibitor required for 50% inhibition of the enzyme.

[2] = DPPH radical-scavenging activity assay; conditions: for DPPH Radical Scavenging (%) after 30 min / DPPH Radical Scavenging (%) after 60 min: mean ± SD
Protocol: 2,2-Diphenylpicrylhydrazyl (DPPH) was purchased from Sigma-Aldrich (Steinheim, Germany). DPPH radical-scavenging activity was determined according to the method described by Brand-Williams et al. using (+)-catechin (Sigma-Aldrich, Steinheim, Germany) as the positive control. The chalcone samples were previously dissolved in DMSO and MeOH at the molar concentration of 2 × 10^–3 M. The positive control sample was dissolved in DMSO at the same molar concentration. The DPPH stock solution was diluted 10× with methanol to obtain the concentration of 1 × 10^–4 M. The measurements: 70 μL of the sample was added to 4 mL of the DPPH solution, and the samples were left for 30 or 60 min at room temperature in the dark. The absorbance was recorded at 517 nm by s Varian Cary 50 spectrophotometer. The control was prepared as above without any sample.
DPPH free-radical scavenging activity was calculated using the following Formula (2):(2) Scavenging activity [%]=[Absorbance of control−Absorbance of test sample]/Absorbance control×100 where the absorbance of control is the absorbance of DPPH radicals in the absence of compounds, and the absorbance of the test sample is the absorbance in the presence of the studied compound.

[3] = molecular target: T2, Acetylcholinesterase (AChE, E.C. 3.1.1.7, from human erythrocytes) (Homo sapiens, UniProt P22303); assay: AChE inhibition (Ellman method); type: biochemical
T2 construct: Acetylcholinesterase (AChE, E.C. 3.1.1.7, from human erythrocytes); purchased Sigma-Aldrich (Steinheim, Germany); host or cells: human erythrocytes (natural source)
Protocol: as §1

[4] = pH 8 phosphate buffer, 25 °C, n = 9, read-out: BuChE IC50 Mean ± SD
[5] = samples dissolved in DMSO (stock 2 × 10^−3 M), three experiments
[6] = samples dissolved in MeOH (stock 2 × 10^−3 M)
[7] = pH 8 phosphate buffer, 25 °C, n = 9, read-out: AChE IC50 Mean ± SD

T1 sequence (P81908 whole entry): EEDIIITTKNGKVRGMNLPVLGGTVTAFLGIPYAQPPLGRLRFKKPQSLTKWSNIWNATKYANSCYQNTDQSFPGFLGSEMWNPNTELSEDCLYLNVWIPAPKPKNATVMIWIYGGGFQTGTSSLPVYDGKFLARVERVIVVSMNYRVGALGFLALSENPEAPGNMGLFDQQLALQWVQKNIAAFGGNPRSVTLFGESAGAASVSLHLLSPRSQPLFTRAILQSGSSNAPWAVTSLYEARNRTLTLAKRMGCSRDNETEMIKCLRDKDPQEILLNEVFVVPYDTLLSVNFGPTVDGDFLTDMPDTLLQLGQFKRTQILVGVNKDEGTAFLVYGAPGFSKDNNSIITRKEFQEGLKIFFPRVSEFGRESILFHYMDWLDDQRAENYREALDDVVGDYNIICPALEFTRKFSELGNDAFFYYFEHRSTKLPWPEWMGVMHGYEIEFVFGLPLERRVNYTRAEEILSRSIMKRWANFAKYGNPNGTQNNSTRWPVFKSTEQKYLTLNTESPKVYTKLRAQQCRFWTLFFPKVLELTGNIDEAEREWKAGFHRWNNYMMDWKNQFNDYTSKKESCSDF
T2 sequence (P22303 32-617 isoform P22303-2 limits assumed): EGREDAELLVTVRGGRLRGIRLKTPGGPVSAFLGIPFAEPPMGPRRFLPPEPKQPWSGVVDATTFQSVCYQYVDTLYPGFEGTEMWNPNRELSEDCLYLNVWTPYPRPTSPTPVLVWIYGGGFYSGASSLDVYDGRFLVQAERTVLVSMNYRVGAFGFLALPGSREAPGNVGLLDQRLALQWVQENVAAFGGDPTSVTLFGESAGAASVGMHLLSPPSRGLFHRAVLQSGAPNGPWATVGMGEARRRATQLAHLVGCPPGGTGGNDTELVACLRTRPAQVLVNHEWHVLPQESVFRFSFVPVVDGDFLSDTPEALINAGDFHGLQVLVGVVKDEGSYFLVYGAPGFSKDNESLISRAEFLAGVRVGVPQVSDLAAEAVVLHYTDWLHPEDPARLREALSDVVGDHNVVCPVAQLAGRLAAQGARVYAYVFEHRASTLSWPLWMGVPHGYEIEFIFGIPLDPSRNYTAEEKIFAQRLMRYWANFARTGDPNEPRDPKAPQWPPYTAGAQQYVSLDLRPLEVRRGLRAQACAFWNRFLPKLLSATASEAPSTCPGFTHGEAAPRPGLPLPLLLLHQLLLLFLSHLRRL

SMILES | IC50 [1, 4] [µM] | DPPH Radical Scavenging (%) after 30 min [2, 5] [%] | DPPH Radical Scavenging (%) after 30 min [2, 6] [%] | DPPH Radical Scavenging (%) after 60 min [2, 6] [%] | IC50 [3, 7] [µM] | IC50 [1] [µM] | DPPH Radical Scavenging (%) after 30 min ([2]; samples dissolved in DMSO (stock 2 × 10^−3 M), three experiments, listed as licochalcone A) | DPPH Radical Scavenging (%) after 60 min ([2]; samples dissolved in MeOH (stock 2 × 10^−3 M), listed as licochalcone A) | DPPH radical scavenging (%) ([2]; solvent and time not stated) | IC50 [3] [µM] | inhibitory properties towards AChE ([3]; result in words)
COc1cc(O)c(CC=C(C)C)c(O)c1C(=O)/C=C/c1ccc(O)cc1 [XN, xanthohumol] | 65.79 ± 0.34 | 7.99 ± 0.05 | 4.34 ± 0.05 | 6.72 ± 0.30 | 40.81 ± 0.04 |  |  |  |  |  | 
C=CC(C)(C)c1cc(/C=C/C(=O)c2ccc(O)cc2)c(OC)cc1O [LIC, licochalcone A] |  | 29.24 ± 0.70 | 26.50 ± 0.92 | 29.60 ± 0.98 |  | 42.28 ± 0.06 | ~ 29% | ~ 29% | 29 | 23.41 ± 0.02 | 
COc1cc(O)cc(O)c1C(=O)/C=C/c1ccccc1 [CA, cardamonin] |  | 2.09 ± 0.05 | 0.79 ± 0.07 | 1.33 ± 0.14 |  | 75.29 ± 0.41 |  |  |  | 67.87 ± 0.01 | 
COc1ccc(/C=C/C(=O)c2c(O)cc(OC)cc2OC)cc1 [HCH, 2′-hydroxy-4,4′,6′-trimethoxychalcone] | 76.5 ± 3.03 | 2.09 ± 0.03 | 0.30 ± 0.06 | 0.35 ± 0.05 | > 100 |  |  |  |  |  | did not show any inhibitory properties
CC(C)=CCc1c(O)ccc(C(=O)/C=C/c2ccc(O)cc2)c1O [IBC, isobavachalcone] | 43.05 ± 0.16 | 2.36 ± 0.07 | 0.61 ± 0.01 | 1.03 ± 0.06 | 35.48 ± 0.01 |  |  |  |  |  | 
Oc1cc(O)c2c(c1)O[C@H](c1ccc(O)c(O)c1)[C@@H](O)C2 [(+)-catechin, reference compound] |  | 94.14 ± 0.44 |  |  |  |  |  |  |  |  | 
CN(C)C(=O)Oc1cccc([N+](C)(C)C)c1 [Neostygmine, neostigmine bromide, reference compound] |  |  |  |  |  | 0.03 ± 0.01 |  |  |  |  | 
